Reference: patent US9271978B2 (Zenith Epigenetics Corp., priority 2012, dated 2016)

Tests used:
Parameters in all cases: key: Active: Compounds with an IC50 value less than 30 μM were deemed to be active.; Not Active: Compounds with an IC50 value less than 30 μM were deemed to be active
hIL-6 mRNA = experiment: Inhibition of hIL-6 mRNA transcription in U937 cells; assay type: cell-based, human; conditions: LPS stimulation, active = IC50 <30 μM
How it was run: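 U937 cells differentiated 3 days with 60 ng/mL PMA, pretreated 1 h with compound, then stimulated with 1 ug/mL E. coli LPS for 3 h at 37° C. hIL-6 mRNA quantified by one-step qRT-PCR, Ct normalized to internal control, expressed as fold induction relative to control.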

c-myc = experiment: Inhibition of c-myc expression in MV4-11 cells (mRNA, real-time PCR); assay type: cell-based; conditions: Human AML MV4-11 cells, 3 h incubation
How it was run: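 MV4-11 cells (2.5×10^4) treated with compound or 0.1% DMSO for 3 h at 37 °C. c-myc mRNA measured by RT real-time PCR duplexed with cyclophilin. IC50 from dose–response curve.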

[1] = test system: human AML MV-4-11 (CRL-9591) cells; experiment: Inhibition of cell proliferation in MV4-11 cells; assay type: cell-based; conditions: human AML MV-4-11 cells, 72 h; active = IC50 <30 μM
How it was run: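 Exponentially growing MV-4-11 cells (5×10^4/well) were treated immediately with two-fold dilutions of compound from 30 μM to 0.2 μM, in triplicate, for 72 h at 37° C, 5% CO2. Viability was measured by MTS absorbance at 490 nm after 3–4 h. Proliferation relative to DMSO after blank correction gave IC50.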

[2] = molecular target: T1, Brd4 bromodomain 1 (BRD4(1)) (Homo sapiens, UniProt O60885); experiment: Inhibition of tetra-acetylated histone H4 binding to Brd4 bromodomain 1 (TR-FRET); conditions: tetra-acetylated histone H4 peptide, active = IC50 <30 μM
T1 construct: Illustrative results with the first bromodomain of Brd4; made in house; host or cells: E. coli BL21 (DE3)
How it was run: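 N-terminally His-tagged bromodomains (200 nM), expressed in E. coli, were incubated with biotinylated tetra-acetylated histone H4 peptide (25-50 nM), Eu-cryptate streptavidin and XL665 anti-His antibody in HEPES pH 7.4 buffer with KF, 0.2% DMSO, 2 h at room temperature. Inhibition read as decreased 665/620 nm TR-FRET; IC50 from dose-response curves.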

Cc1noc(C)c1-c1ccc(=O)n(Cc2ccc(Cl)cc2)c1 [Example 128, 1-(4-Chlorobenzyl)-5-(3,5-dimethylisoxazol-4-yl)pyridin-2(1H)-one]
Active: IL-6 activity (IC50 <30 μM) (hIL-6 mRNA) | c-myc activity (IC50 <30 μM) (c-myc) | Cell Proliferation activity (IC50 <30 μM) [1] | FRET activity (IC50 <30 μM) BRD4(1) [2]

Cc1noc(C)c1-c1cc(N)c(=O)n(Cc2ccsc2)c1 [Example 219, 3-amino-5-(3,5-dimethylisoxazol-4-yl)-1-(thiophen-3-ylmethyl)pyridin-2(1H)-one]
Active: IL-6 activity (IC50 <30 μM) (hIL-6 mRNA) | c-myc activity (IC50 <30 μM) (c-myc) | Cell Proliferation activity (IC50 <30 μM) [1] | FRET activity (IC50 <30 μM) BRD4(1) [2]

Cc1noc(C)c1-c1cc(N)c(=O)n(Cc2ccc(F)cc2)c1 [Example 180, 3-amino-5-(3,5-dimethylisoxazol-4-yl)-1-(4-fluorobenzyl)pyridin-2(1H)-one]
Active: IL-6 activity (IC50 <30 μM) (hIL-6 mRNA) | c-myc activity (IC50 <30 μM) (c-myc) | Cell Proliferation activity (IC50 <30 μM) [1] | FRET activity (IC50 <30 μM) BRD4(1) [2]

Cc1noc(C)c1-c1ccc(=O)n(Cc2ccccc2)c1 [Example 56, 1-Benzyl-5-(3,5-dimethylisoxazol-4-yl)pyridin-2(1H)-one]
Active: IL-6 activity (IC50 <30 μM) (hIL-6 mRNA) | c-myc activity (IC50 <30 μM) (c-myc) | Cell Proliferation activity (IC50 <30 μM) [1] | FRET activity (IC50 <30 μM) BRD4(1) [2]

Cc1noc(C)c1-c1cc(N)c(=O)n(Cc2ccc(Br)cc2)c1 [Example 241, 3-Amino-1-(4-bromobenzyl)-5-(3,5-dimethylisoxazol-4-yl)pyridin-2(1H)-one]
Active: IL-6 activity (IC50 <30 μM) (hIL-6 mRNA) | c-myc activity (IC50 <30 μM) (c-myc) | Cell Proliferation activity (IC50 <30 μM) [1] | FRET activity (IC50 <30 μM) BRD4(1) [2]

Cc1noc(C)c1-c1cc(N)c(=O)n(Cc2ccccc2)c1 [Example 73, 3-Amino-1-benzyl-5-(3,5-dimethylisoxazol-4-yl)pyridin-2(1H)-one]
Active: IL-6 activity (IC50 <30 μM) (hIL-6 mRNA) | c-myc activity (IC50 <30 μM) (c-myc) | Cell Proliferation activity (IC50 <30 μM) [1] | FRET activity (IC50 <30 μM) BRD4(1) [2]

Cc1noc(C)c1-c1ccc(=O)n([C@H](C)c2ccccc2)c1 [Example 134, (R)-5-(3,5-Dimethylisoxazol-4-yl)-1-(1-phenylethyl)pyridin-2(1H)-one]
Active: IL-6 activity (IC50 <30 μM) (hIL-6 mRNA) | c-myc activity (IC50 <30 μM) (c-myc) | Cell Proliferation activity (IC50 <30 μM) [1] | FRET activity (IC50 <30 μM) BRD4(1) [2]
